# Laboratory results: PMC10350920, “Development of a 2,4-Diaminothiazole Series for the Treatment of Human African Trypanosomiasis Highlights the Importance of Static–Cidal Screening of Analogues” (Journal of Medicinal Chemistry, 2023)
# Legend:
# [1] = Rat microsomal intrinsic clearance; type: in vitro ADME; details: second value of mouse/rat cell
# [2] = test system: BSF T. b. brucei “single marker” S427; test: Drug sensitivity assay with bloodstream-form T. brucei; type: cell-based; details: for EC50: Trypanosoma brucei, mean values, number of replicates in parentheses
# Description: (§1) Drug sensitivity assays with BSF T. b. brucei “single marker” S427 and human MRC-5 fibroblasts were conducted as previously described.[43]
# [3] = Mouse brain penetration (brain:blood ratio); type: in vivo, female NMRI mice; details: female, NMRI, mouse, brain and blood, 10 mg kg^–1; mice, bolus of test compound, total compound; read-out: brain/blood (B/B) ratio
# Description: Medicines for HAT are required to treat both acute and chronic infections, where parasites pass through the blood/brain barrier and enter the CNS. With this in mind, mice were dosed with an […] bolus of our test compounds, and compound concentrations in blood and brain were determined by UPLC–MS/MS. […] The brain fraction unbound was 0.0063 for 16 and 0.0313 for 38. Brain penetration of the series as a whole tracked with the generally accepted rules of CNS penetration, with a lower topological PSA (TPSA) and molecular weight compounds having an increased B/B ratio (Table S2 and Figure S1). However, the link between log P and the B/B ratio was slightly less convincing. […] This difference could be explained by 18 being a substrate for the P-glycoprotein efflux pump.
# Each compound was dosed as an IV bolus at 10 mg kg^–1 dissolved in 15% solutol/Milli-Q (dose volume 10 mL kg^–1) to female NMRI mice (n = 3). At 30 min following the IV bolus of the test compound, mice (n = 3/time point) were placed under terminal anesthesia with isoflurane. A blood sample was taken by cardiac puncture and added to two volumes of distilled water, and the brain was removed. […] For each mouse at each time point, the concentration in the brain (ng g^–1) was divided by the concentration in blood (ng mL^–1) to give a brain: blood ratio.
# human MRC-5 fibroblasts = test: Mammalian cell counter screen (MRC-5); type: cell-based; details: selectivity index (EC50 MRC5/EC50 T. brucei)
# Description: as §1
# [4] = Mammalian cell counter screen (MRC-5); type: cell-based, human; details: human, MRC-5 fibroblasts; mean values; number of replicates in parentheses
# Description: as §1
# [5] = Mouse liver microsomal intrinsic clearance; type: in vitro ADME
# Description: Test compounds (0.5 μM) were incubated with female CD1 mouse liver microsomes (Xenotech LLC; 0.5 mg mL^–1 50 mM potassium phosphate buffer, pH 7.4), and the reaction started with the addition of excess NADPH (8 mg mL^–1 50 mM potassium phosphate buffer, pH 7.4). Immediately, at 0 min, and then at 3, 6, 9, 15, and 30 min, an aliquot (50 μL) of the incubation mixture was removed and mixed with acetonitrile (100 μL) to stop the reaction. The internal standard was added to all samples, the samples were centrifuged to sediment the precipitated protein, and the plates were then sealed prior to UPLC–MS/MS analysis using a Quattro Premier XE (Waters Corporation, USA). XLfit (IDBS, UK) was used to calculate the exponential decay and consequently the rate constant (k) from the ratio of the peak area of the test compound to the internal standard at each time point. The rate of intrinsic clearance (CLint) of each test compound was then calculated using the following calculation [drawing 3] where V (mL mg^–1 protein) is the incubation volume mg^–1 protein added and the microsomal protein yield is taken as 52.5 mg protein g^–1 liver. Verapamil (0.5 μM) was used as a positive control to confirm acceptable assay performance.
Structure (SMILES),CLint (rat) [1] [mL·min/g],EC50 [2] [nM],Kp at 30 min [3],SI (human MRC-5 fibroblasts),EC50 [4] [nM],CLint (mouse) [5] [mL·min/g],improvement in activity against T. brucei relative to parent analogue ([2]; SAR comparison) [fold],"reduction (loss, drop off) in potency against T. brucei relative to parent analogue ([2]; SAR comparison) [fold]"
"CC(OCC(=O)c1sc(Nc2ccc(Cl)cc2)nc1N)C(F)(F)F (stereo not shown) [Compound 51, 1-(4-Amino-2-((4-chlorophenyl)amino)thiazol-5-yl)-2-((1,1,1-trifluoropropan-2-yl)oxy)ethanone]",1.7,8,0.9,6250,> 50000,5.3,,
"Nc1nc(Nc2ccc(F)c(F)c2)sc1C(=O)CN1C[C@H]2CC[C@@H](C1)O2 [Compound 66, 1-(4-Amino-2-((3,4-difluorophenyl)amino)thiazol-5-yl)-2-((1R,5S)-8-oxa-3-azabicyclo[3.2.1]octan-3-yl)ethanone]",15.1,110,,455,> 50000,8.8,,
"CC1CCCN1CC(=O)c1sc(Nc2ccc(F)c(F)c2)nc1N (stereo not shown) [Compound 59, 1-(4-Amino-2-((3,4-difluorophenyl)amino)thiazol-5-yl)-2-(2-methylpyrrolidin-1-yl)ethanone]",3.1,50,,1000,> 50000,5.2,,
"Nc1nc(Nc2ccc(F)c(F)c2)sc1C(=O)COC1CCC1 [Compound 46, 1-(4-Amino-2-((3,4-difluorophenyl)amino)thiazol-5-yl)-2-cyclobutoxyethanone]",8.2,20,,2500,> 50000,9,,
"Nc1nc(Nc2ccc(F)c(F)c2)sc1C(=O)CN1CCCCC1 [Compound 61, 1-(4-Amino-2-((3,4-difluorophenyl)amino)thiazol-5-yl)-2-(piperidin-1-yl)ethanone]",6.7,60,,816,49000,7.7,,
"CC(OCC(=O)c1sc(Nc2ccc3c(c2)OC(F)(F)O3)nc1N)C(F)(F)F (stereo not shown) [Compound 53, 1-(4-Amino-2-((2,2-difluorobenzo[d][1,3]dioxol-5-yl)amino)thiazol-5-yl)-2-((1,1,1-trifluoropropan-2-yl)oxy)ethan-1-one]",1.2,30,,1667,> 50000,5,,
"Nc1nc(Nc2ccc(F)c(F)c2)sc1C(=O)CN1CCCC(F)(F)C1 [Compound 67, 1-(4-Amino-2-((3,4-difluorophenyl)amino)thiazol-5-yl)-2-(3,3-difluoropiperidin-1-yl)ethanone]",20,20,,250,5000,33,,
"CC(C)C(=O)c1sc(NC2CCCCC2)nc1N [Compound 18, 1-(4-Amino-2-(cyclohexylamino)thiazol-5-yl)-2-methylpropan-1-one]",,2400,0.06,4,10000,0.5,,
"Nc1nc(Nc2ccc(F)c(F)c2)sc1C(=O)CN1CCC(F)(F)CC1 [Compound 68, 1-(4-Amino-2-((3,4-difluorophenyl)amino)thiazol-5-yl)-2-(4,4-difluoropiperidin-1-yl)ethanone]",11,20,,2350,47000,9.3,,
"Nc1nc(Nc2ccc(F)c(F)c2)sc1C(=O)CN1C[C@@H]2C[C@H]1CO2 [Compound 65, 1-(4-Amino-2-((3,4-difluorophenyl)amino)thiazol-5-yl)-2-((1S,4S)-2-oxa-5-azabicyclo[2.2.1]heptan-5-yl)ethanone]",4.9,40,,1250,> 50000,4.1,,
"CC(OCC(=O)c1sc(Nc2ccc(F)c(F)c2)nc1N)C(F)(F)F (stereo not shown) [Compound 50, 1-(4-Amino-2-((3,4-difluorophenyl)amino)thiazol-5-yl)-2-((1,1,1-trifluoropropan-2-yl)oxy)ethanone]",2.9,6,,8333,> 50000,7.4,,
"CC(C)OCC(=O)c1sc(Nc2ccc(F)c(F)c2)nc1N [Compound 42, 1-(4-Amino-2-((3,4-difluorophenyl)amino)thiazol-5-yl)-2-isopropoxyethanone]",3.6,20,,2500,> 50000,9.3,10,
"Nc1nc(Nc2ccc(F)c(F)c2)sc1C(=O)CN1CCCC1C(F)(F)F (stereo not shown) [Compound 60, 1-(4-Amino-2-((3,4-difluorophenyl)amino)thiazol-5-yl)-2-(2-(trifluoromethyl)pyrrolidin-1-yl)ethanone]",10,20,,1600,32000,26,,
"Nc1nc(Nc2ccc(F)c(F)c2)sc1C(=O)CCN1CCOCC1 [Compound 64, 1-(4-Amino-2-((3,4-difluorophenyl)amino)thiazol-5-yl)-3-morpholinopropan-1-one]",8.3,5000,,6,29000,1.2,,> 110
"Nc1nc(Nc2ccc(F)c(F)c2)sc1C(=O)COC1CC(F)(F)C1(F)F (stereo not shown) [Compound 47, 1-(4-Amino-2-((3,4-difluorophenyl)amino)thiazol-5-yl)-2-(2,2,3,3-tetrafluorocyclobutoxy)ethanone]",4.4,10,,2900,29000,5.2,,
"Nc1nc(Nc2ccc(F)c(F)c2)sc1C(=O)CN1CCCC1 [Compound 58, 1-(4-Amino-2-((3,4-difluorophenyl)amino)thiazol-5-yl)-2-(pyrrolidin-1-yl)ethanone]",2.2,90,,533,48000,2.1,,
"COc1ccc(Nc2nc(N)c(C(=O)COC(C)C(F)(F)F)s2)cn1 (stereo not shown) [Compound 57, 1-(4-Amino-2-((6-methoxypyridin-3-yl)amino)thiazol-5-yl)-2-((1,1,1-trifluoropropan-2-yl)oxy)ethanone]",2.4,70,,714,> 50000,9.0,,
